Data from patent US20240390408A1, “METHOD OF TREATING HEPATITIS C VIRUS IN PATIENTS” (Altesa BioSciences, Inc., priority 2023, published 2024).
Like-named read-outs stand apart in the source and are kept apart here.

Legend:
[1] = Tissue concentrations of Formula I and its metabolites in Göttingen pigs after a single oral or intravenous dose (LC-MS/MS); format: in vivo; settings: for concentration at 2 h / concentration at 3 h: both sexes, Göttingen, pig (minipig), in vivo; for concentration at 2 h: 25 mg/kg; for concentration at 3 h: 125 mg/kg
Procedure: Tissue samples were collected at 3, 12, and 24 hours post-dose (hpd) for the oral dose and 2 and 12 hpd for the intravenous dose, snap-frozen in liquid nitrogen, and stored at −60 to −90° C. until shipment on dry ice for analysis by LC-MS/MS.
Animals were weighed the day prior to dosing to determine the dosing volume.
The compound of Formula I was dissolved in a PEG 400/DI water (60%/40% v/v) vehicle for oral dosing. For IV dosing the compound of Formula I was dissolved in a PEG 400/Cremophor RH 40/Saline (40%/10%/50% v/v) vehicle and passed through a sterile filter. […] Animals were euthanized by euthanasia solution administration under sedation, if necessary (e.g., acepromazine and or/Telazol®), followed by a Testing Facility SOP approved method to ensure death (e.g., exsanguination). Tissues were collected from two animals per sex per timepoint. Tissue samples, including the brain, heart, kidney, liver, lung, spleen, pancreas, bone marrow, duodenum, jejunum, and colon, were collected in duplicate (approximately 50±20 mg each) and placed into two separate reinforced homogenization tubes per organ (one tissue sample per tube). The exact weight (in milligrams) of each sample was recorded. Tissues samples were flash frozen in liquid nitrogen and stored at −60 to −90° C. until shipment on dry ice for analysis by LC-MS/MS.
Mobile phase A consisted of 50 mM ammonium bicarbonate buffer in HPLC grade water pH 9.8 and mobile phase B consisted of pure acetonitrile. […] Mass spectrometry analysis was performed on a QTrap 7500 Mass Spectrometer (Sciex, Framingham, MA, USA) using negative mode electrospray ionization (ESI) in multiple reaction monitoring (MRM) mode. Data analysis was performed using SCIEX OS Software (Sciex, Framingham, MA, USA).
Tissue samples were collected at 3, 12, and 24 hours post-dose for the oral dose and 2 and 12 hour post-dose for the intravenous dose.

[2] = Stability in minipig plasma; format: in vitro ADME
[3] = liver, single oral dose of Formula I 125 mg/kg, 12 hpd
[4] = liver, single oral dose of Formula I 125 mg/kg, 24 hpd

Structure (SMILES): CC(C)OC(=O)[C@H](C)N[P@](=O)(OC[C@H]1O[C@@H](n2ccc(=O)[nH]c2=S)C(C)(O)C1O)Oc1ccccc1 (some centres unmarked) [Formula I]
- Quantity detectable in organs ([1]; all organs, 2-3 hours after IV or PO dosing): ~0.1 µM
- concentration at 2 h ([1]; kidney, single intravenous bolus of Formula I 25 mg/kg, 2 hpd, read-out: Tissue concentration, kidney): 85 ± 93.1 ng/g
- concentration at 2 h ([1]; liver, single intravenous bolus of Formula I 25 mg/kg, 2 hpd, read-out: Tissue concentration, liver): 7.03 ± 8.24 ng/g
- concentration at 2 h ([1]; lung, single intravenous bolus of Formula I 25 mg/kg, 2 hpd, read-out: Tissue concentration, lung): 51.8 ± 29.1 ng/g
- concentration at 2 h ([1]; spleen, single intravenous bolus of Formula I 25 mg/kg, 2 hpd, read-out: Tissue concentration, spleen): 63.9 ± 29.8 ng/g
- concentration at 3 h ([1]; brain, single oral dose of Formula I 125 mg/kg, 3 hpd, read-out: Tissue concentration, brain): 31.5 ± 63 ng/g
- concentration at 3 h ([1]; heart, single oral dose of Formula I 125 mg/kg, 3 hpd, read-out: Tissue concentration, heart): 117 ± 105 ng/g
- concentration at 3 h ([1]; liver, single oral dose of Formula I 125 mg/kg, 3 hpd, read-out: Tissue concentration in Göttingen pig liver (Table 7)): 496 ± 663 nM
- concentration at 3 h ([1]; liver, single oral dose of Formula I 125 mg/kg, 3 hpd, read-out: Tissue concentration, liver): 270 ± 361 ng/g
- concentration at 3 h ([1]; lung, single oral dose of Formula I 125 mg/kg, 3 hpd, read-out: Tissue concentration, lung): 38.6 ± 46.5 ng/g
- concentration at 3 h ([1]; spleen, single oral dose of Formula I 125 mg/kg, 3 hpd, read-out: Tissue concentration, spleen): 88.4 ± 60.3 ng/g
- Tissue concentration, brain ([1]; brain, single intravenous bolus of Formula I 25 mg/kg, 2 hpd): BQL
- Tissue concentration, brain ([1]; brain, single intravenous bolus of Formula I 25 mg/kg, 12 hpd): BQL
- Tissue concentration, brain ([1]; brain, single oral dose of Formula I 125 mg/kg, 3 hpd): 31.5 ± 63.0 ng/g
- Tissue concentration, brain ([1]; brain, single oral dose of Formula I 125 mg/kg, 12 hpd): BQL
- Tissue concentration, brain ([1]; brain, single oral dose of Formula I 125 mg/kg, 24 hpd): BQL
- Tissue concentration, heart ([1]; heart, single intravenous bolus of Formula I 25 mg/kg, 2 hpd): 112 ± 69.0 ng/g
- Tissue concentration, heart ([1]; heart, single intravenous bolus of Formula I 25 mg/kg, 12 hpd): 2.95 ± 5.90 ng/g
- Tissue concentration, heart ([1]; heart, single oral dose of Formula I 125 mg/kg, 12 hpd): BQL
- Tissue concentration, heart ([1]; heart, single oral dose of Formula I 125 mg/kg, 24 hpd): BQL
- Tissue concentration, kidney ([1]; kidney, single intravenous bolus of Formula I 25 mg/kg, 12 hpd): BQL
- Tissue concentration, kidney ([1]; kidney, single oral dose of Formula I 125 mg/kg, 3 hpd): BQL
- Tissue concentration, kidney ([1]; kidney, single oral dose of Formula I 125 mg/kg, 12 hpd): BQL
- Tissue concentration, kidney ([1]; kidney, single oral dose of Formula I 125 mg/kg, 24 hpd): BQL
- Tissue concentration, liver ([1]; liver, single intravenous bolus of Formula I 25 mg/kg, 2 hpd): 7.03 ± 8.24 ng/g
- Tissue concentration, liver ([1]; liver, single intravenous bolus of Formula I 25 mg/kg, 12 hpd): BQL
- Tissue concentration, liver ([1]; liver, single oral dose of Formula I 125 mg/kg, 3 hpd): 270 ± 361 ng/g
- Tissue concentration in Göttingen pig liver (Table 7) [1, 3]: BQL
- Tissue concentration, liver [1, 3]: BQL
- Tissue concentration in Göttingen pig liver (Table 7) [1, 4]: BQL
- Tissue concentration, liver [1, 4]: BQL
- Tissue concentration, lung ([1]; lung, single intravenous bolus of Formula I 25 mg/kg, 12 hpd): BQL
- Tissue concentration, lung ([1]; lung, single oral dose of Formula I 125 mg/kg, 12 hpd): BQL
- Tissue concentration, lung ([1]; lung, single oral dose of Formula I 125 mg/kg, 24 hpd): BQL
- Tissue concentration, spleen ([1]; spleen, single intravenous bolus of Formula I 25 mg/kg, 12 hpd): BQL
- Tissue concentration, spleen ([1]; spleen, single oral dose of Formula I 125 mg/kg, 12 hpd): BQL
- Tissue concentration, spleen ([1]; spleen, single oral dose of Formula I 125 mg/kg, 24 hpd): BQL
- Stability in minipig plasma [2]: good stability
